# In PMC12921516 (ACS Bio & Med Chem Au, 2025):
# Entries after “also recorded” stand apart in the source; their conditions may differ.
# Legend:
# Assay type in all cases: cell-based, human
# [1] = system: HepG2 cells; assay: Cell viability of HepG2 with crystal violet; conditions: 1, 10, and 30 µM for 24, 48 and 72 h
# Description: A 96-well plate was seeded with 3,000 HepG2 cells per well and incubated for 72 h. Subsequently, the cells were treated with test compounds at various concentrations for 24, 48, and 72 h. After incubation, the medium was removed, and 100 μL of 1% glutaraldehyde was added for 15 min. The glutaraldehyde was then removed, and 50 μL of 0.5% crystal violet (dissolved in 25% methanol) was added for 30 min. The crystal violet staining solution was subsequently removed, and the plate was thoroughly rinsed with tap water. The precipitate was dissolved in a 10% acetic acid solution, mixed for 15 min, and the absorbance was measured at 590 nm using a plate reader (xMark Microplate Spectrophotometer, Bio-Rad).
# Figure S48. Cell viability assessment by crystal violet staining. HepG2 cell viability was evaluated after treatment with the respective compounds at concentrations of 1 , 10, and 30 µM for 24 , 48 and 72 hours. Bar graphs represent mean ± SEM. No significant differences were detected using ANOVA. […]
# [2] = system: HepG2 cells; assay: GC-MS untargeted metabolomic analysis; conditions: HepG2, 30 μM for 24 h, vs DMSO
# Description: HepG2 cells are commonly utilized in metabolomics to study alterations in metabolic pathways, such as glycolysis and lipid metabolism, when exposed to various substances, − due to their ability to sustain liver-specific functions. To explore the metabolic changes induced by the 4b and 5g derivatives in HepG2 cells, an untargeted metabolomic analysis using GC-MS was carried out. […] This vitamin is essential for synthesizing coenzyme A (CoA), which in turn produces acetyl-CoA and succinyl-CoA, all of which are crucial for ATP production in the tricarboxylic acid (TCA) cycle. […] On the other hand, our findings indicate that 5g leads to a reduction in intracellular citrate levels, which may promote glycolysis and diminish gluconeogenesis similarly to metformin. Consequently, this could potentially lower hepatic glucose output. In summary, the increased intracellular levels of pantothenic acid and glycine, combined with the lowered citrate levels achieved by 5g, may play a significant role in improving insulin resistance and T2DM.
# 5 GC-MS-based untargeted metabolomic analysis of HepG2. (a) Heatmap analysis of HepG2 cells treated with DMSO (D, vehicle), 4b, or 5g for 24 h. (b) Principal Component Analysis (PCA) of untargeted metabolomic analysis of HepG2 treated with DMSO (vehicle), 4b, and 5g at 30 μM for 24 h (c). Statistically significant metabolites altered between the groups. Graphs were constructed using sum-normalized peak height values. Asterisks indicate statistical significance according to the Dunn test, with p-values denoted as follows: *p < 0.05, **p < 0.01. Created in BioRender. Matuz Mares, D. (2025) https://BioRender.com/hpj5plg.
# The treated HepG2 cells were washed twice with 1 mL of PBS, and the liquid was entirely removed by pipetting. Posteriorly, 1 mL of ice-cold methanol containing 2.5 μL of internal standard, consisting of tridecanoic acid (0.1 mg/mL), was added, and the mixture was bath sonicated for 2 min. All the extract was recovered in microcentrifuge tubes, thoroughly vortexed, and then centrifuged for 10 min at 15,000 rpm at 4 °C. The supernatant was recovered and dried overnight using a SpeedVac (SPD 121P, Thermo Scientific). 40 μL of 20 mg/mL […] was added under nitrogen flow and incubated for 90 min at 37 °C. Posteriorly, the tube was centrifuged, and the supernatant was fully recovered and transferred to an insert tube with 40 μL of MBSTFA 1% TMCS, vortexed and incubated for 30 min. One μL of this extract was injected into a GC/MS (Agilent 5977A/7890B, Santa Clara, CA, USA) system with HP5-MS (Agilent) column with helium 99.9999% purity under the following parameters: splitless, flow 1 mL/min, electron ionization, with a range of 50–500 m/z. The chromatography consisted of a 1 min hold at 60 °C, followed by a ramp of 10 °C/min to 325 °C, and a final hold time of 10 min. Raw data was transformed with Agilent Mass Hunter to mz data, and deconvolution and alignment were performed with Mzmine2.0. Univariate and multivariate analyses were performed with Metaboanalyst 6.0 and GraphPad.
# [3] = system: HepG2 cells; assay: Western blotting, HepG2 normal model; conditions: 24 h
# Description: (§1) HepG2 cells were obtained directly from ATCC (HB-8065) and cultured in DMEM with low glucose, supplemented with fetal bovine serum, 100 U/mL penicillin G, and […] streptomycin. The media was freshly prepared and sterilized by filtration. Cells were maintained with a maximum of 10 passages before being discarded. For cell counting, the cells were washed twice with phosphate-buffered saline (PBS), trypsinized, and counted using a Neubauer chamber. For the insulin-resistant model, 75,000 cells per well were seeded in 6-well plates at 37 °C in 5% CO2 and cultured for 72 h. Subsequently, insulin (0.1 μM) was added to induce insulin resistance for 24 h. After this period, inhibitors were incubated for 24 h, followed by a final 30 min insulin stimulation (0.1 μM) before protein extraction. For the normal model, 75,000 cells per well were seeded in 6-well plates at 37 °C in 5% CO2 and cultured for 96 h. After that, the cells were incubated with the inhibitors for 24 h, followed by protein extraction.
# (§2) Treated cells were washed twice with 1 mL of PBS, and proteins were extracted using 300 μL of a buffer solution containing 10% sodium deoxycholate in 10% TEAB, supplemented with a protease and phosphatase inhibitor cocktail. The extracts were heated at 80 °C for 5 min and dissociated by repeated passages through an insulin syringe. The cell extracts were centrifuged at 15,000 rpm for 15 min at 4 °C, and the supernatant was collected. Protein quantification was performed using the bicinchoninic acid assay, and aliquots were prepared for Western blotting. SDS-PAGE was conducted, and proteins were transferred onto a nitrocellulose membrane. The membrane was blocked with 10% skim milk in TBST for 1 h and incubated overnight with primary antibodies (1:400 dilution). Secondary antibodies conjugated to horseradish peroxidase were diluted 1:2,000, and the membranes were incubated for 1 h at room temperature. Blots were visualized using the ChemiDoc MP (Bio-Rad), and densitometric analysis was performed with ImageJ (U.S. National Institutes of Health). Statistical analyses were conducted using GraphPad Prism 8.0.
# compounds at 24 h of treatment. β-actin was employed as loading control. b) Densitometric analysis of western blot images
# employing ImageJ analysis software. Bar graphs represent the mean ± SEM of normalized values. The control levels were set to
# 1. Asterisks indicate statistical significance according to the Dunn test. p* < 0.05
# (§3) (1 picture or pasted object on this page, not shown here)
# [4] = system: insulin-resistant HepG2 cells; assay: Western blotting, insulin-resistant HepG2 model; conditions: 24 h
# Description: as §1, §2
# resistance model in HepG2 cells . a) Western blotting representative analysis (n=3) of PTP1B, p -AKT, p-IRS1 and p-STAT3 levels
# of HepG2 cells treated with the compounds at 24 h of treatment. β-actin was employed as loading control. b) Densitometric
# analysis of western blot images employing ImageJ analysis software. Bar graphs represent the mean ± SEM of normalized values.
# The control levels were set to 1. Asterisks indicate statistical significance according to the Dunn test. p* < 0.05.
# as §3
compound,measurement,setting,value
"CC1(C)c2[nH]c3ccc(OC(F)F)cc3c2C[C@]2(C)[C@H]3C(=O)C=C4[C@@H]5C[C@@](C)(C(=O)O)CC[C@]5(C)CC[C@@]4(C)[C@]3(C)CC[C@@H]12 [compound 4b, (20β)-5′-(Difluoromethoxy)-11-oxo-1′H-oleana-2,12-dieno[3,2-b]indol-29-oic Acid]",HepG2 cell viability,[1],No significant differences; also recorded: did not compromise HepG2 cell viability
same,glycine levels,[2],not statistically significant
same,intracellular fructose levels,[2],not statistically significant
same,intracellular glucose levels,[2],not statistically significant
same,intracellular palmitic acid levels,[2],significantly reduce
same,intracellular stearic acid levels,[2],significantly reduce
same,pantothenic acid levels,[2],not statistically significant
same,p-STAT3 levels,[3],only a minor increase
"CC1(C)c2[nH]c3ccc(S(N)(=O)=O)cc3c2C[C@]2(C)[C@H]3C(=O)C=C4[C@@H]5C[C@@](C)(C(=O)O)CC[C@]5(C)CC[C@@]4(C)[C@]3(C)CC[C@@H]12 [compound 4g, (20β)-5′-Sulfamoyl-11-oxo-1′H-oleana-2,12-dieno[3,2-b]indol-29-oic Acid]",HepG2 cell viability,[1],No significant differences
same,p-IRS levels,[3],slight but not statistically significant increase
same,p-STAT3 levels,[3],slight but not statistically significant increase
"CC1(C)c2c(cnn2-c2ccc(S(N)(=O)=O)cc2)C[C@]2(C)[C@H]3C(=O)C=C4[C@@H]5C[C@@](C)(C(=O)O)CC[C@]5(C)CC[C@@]4(C)[C@]3(C)CC[C@@H]12 [compound 5g, (20β)-11-Oxo-2′-(4-sulfamoylphenyl)-2′H-oleana-2,12-dieno[3,2-c]pyrazol-29-oic Acid]",HepG2 cell viability,[1],No significant differences; also recorded: did not compromise HepG2 cell viability
same,p-IRS levels,[4],tendency to increase p-IRS levels
same,glycine levels,[2],markedly increasing
same,intracellular citrate levels,[2],reduction
same,intracellular fructose levels,[2],significantly lowers
same,intracellular glucose levels,[2],significantly lowers
same,pantothenic acid levels,[2],significant increase
